Biological target: T1, KRAS G12C 1-169, his-tagged protein, GDP-loaded (Homo sapiens, UniProt P01116, G12C)
T1 construct: KRAS G12C 1-169, his-tagged protein, GDP-loaded
Experiment: Biochemical assay: covalent binding to KRAS G12C, analyzed by mass spectrometry
Settings: percent of KRAS G12C protein covalently bound to test compound; 2 μm protein, room temperature
Experimental: Test compounds were prepared as 10 mM stock solutions in DMSO (Fisher cat# BP-231-100). KRAS G12C 1-169, his-tagged protein, GDP-loaded was diluted to 2 μm in buffer (20 mM Hepes, 150 mM NaCl, 1 mM MgCl2). Compounds were tested for activity as follows:
Compounds were diluted to 50× final test concentration in DMSO in 96-well storage plates. Compound stock solutions were vortexed before use and observed carefully for any sign of precipitation. Dilutions were as follow: • For 100 μM final compound concentration, compounds were diluted to 5000 μM (5 μl 10 mM compound stock+5 μl DMSO and mixed well by pipetting. • For 30 μM final compound concentration, compounds were diluted to 1500 μM (3 μl 10 mM compound stock+17 μl DMSO) and mixed well by pipetting. • For 10 μM final compound concentration, compounds were diluted to 500 μM (2 μl 10 mM compound stock+38 μl DMSO) and mixed well by pipetting. 49 μl of the stock protein solution was added to each well of a 96-well PCR plate (Fisher cat#1423027). 1 μl of the diluted 50× compounds were added to appropriate wells in the PCR plate using 12-channel pipettor. Reactions were mixed carefully and thoroughly by pipetting up/down with a 200 μl multi-channel pipettor. The plate was sealed well with aluminum plate seal, and stored in drawer at room temperature for 24 hrs. 5 μl of 2% formic acid (Fisher cat# A117) in DI H2O was then added to each well followed by mixing with a pipette. The plate was then resealed with aluminum seal and stored on dry ice until analyzed as described below.
The above described assays were analyzed by mass spectrometry according to the following procedure:
The MS instrument is set to positive polarity, 2 GHz resolution, and low mass (1700) mode and allowed to equilibrate for 30 minutes. The instrument is then calibrated, switched to acquisition mode and the appropriate method loaded.
After another 30 minute equilibration time, a blank batch (i.e., buffer) is run to ensure equipment is operating properly. The samples are thawed at 37° C. for 10 minutes, briefly centrifuged, and transfer to the bench top. Wells A1 and H12 are spiked with 1 uL 500 uM internal standard peptide, and the plates centrifuged at 2000×g for 5 minutes. The method is then run and masses of each individual well recorded.
The masses (for which integration data is desired) for each well are pasted into the platemap and exported from the analysis. Masses for the internal standards are exported as well. The data at 50 ppm is extracted for the +19 charge state, and identity of well A1 is assigned using the internal standard spike and integrated. Peak data is exported as a TOF list and the above steps are repeated individually, for the +20, 21, 22, 23, 24, and 25 charge states.

Compound	Binding %
C=CC(=O)N1CCN(c2ccc(-c3cc(O)ccc3Cl)cc2)CC1 [Compound 1, 1-(4-(2′-chloro-5′-hydroxybiphenyl-4-yl)piperazin-1-yl)prop-2-en-1-one]	++++ (indicates binding activity greater than 30%)
C=CC(=O)N1CCN(c2ccc(-c3cc(O)cc(Cl)c3)cc2)CC1 [Compound 2, 1-(4-(3′-chloro-5′-hydroxybiphenyl-4-yl)piperazin-1-yl)prop-2-en-1-one]	++ (indicates binding activity greater than 10% and up to 20%)
C=CC(=O)N1CCN(c2ccc(-c3cc(OC)cc(Cl)c3Cl)cc2)CC1 [Compound 3, 1-(4-(2′,3′-dichloro-5′-methoxybiphenyl-4-yl)piperazin-1-yl)prop-2-en-1-one]	+ (indicates binding activity from 5% to 10%)
C=CC(=O)N1CCN(c2ccc(-c3cc(O)cc(Cl)c3Cl)cc2)CC1 [Compound 4, 1-(4-(2′,3′-dichloro-5′-hydroxybiphenyl-4-yl)piperazin-1-yl)prop-2-en-1-one]	+++ (indicates binding activity greater than 20% and up to 30%)
C=CC(=O)N1CCN(c2ccc(-c3cc(O)ccc3CC)cc2)CC1 [Compound 5, 1-(4-(2′-ethyl-5′-hydroxybiphenyl-4-yl)piperazin-1-yl)prop-2-en-1-one]	++++ (indicates binding activity greater than 30%)
C=CC(=O)N1CCC(n2ccc(-c3cc(O)ccc3Cl)cc2=O)CC1 [Compound 6, 1-(1-acryloylpiperidin-4-yl)-4-(2-chloro-5-hydroxyphenyl)pyridin-2(1H)-one]	++ (indicates binding activity greater than 10% and up to 20%)
C=CC(=O)N1CCN(c2ncc(-c3cc(O)ccc3Cl)cn2)CC1 [Compound 7, 1-(4-(5-(2-chloro-5-hydroxyphenyl)pyrimidin-2-yl)piperazin-1-yl)prop-2-en-1-one]	++ (indicates binding activity greater than 10% and up to 20%)
C=CC(=O)N1CCN(c2ccc(-c3cc(O)ccc3Cl)cn2)CC1 [Compound 8, 1-(4-(5-(2-chloro-5-hydroxyphenyl)pyridin-2-yl)piperazin-1-yl)prop-2-en-1-one]	++ (indicates binding activity greater than 10% and up to 20%)
C=CC(=O)N1CCN(c2ccc(-c3cc(O)ccc3Cl)cc2C#N)CC1 [Compound 9, 4-(4-acryloylpiperazin-1-yl)-2′-chloro-5′-hydroxybiphenyl-3-carbonitrile]	++++ (indicates binding activity greater than 30%)
C=CC(=O)N1CCN(c2ccc(-c3cc(O)ccc3Cl)c(C(N)=O)c2)CC1 [Compound 10, 4-(4-acryloylpiperazin-1-yl)-2′-chloro-5′-hydroxybiphenyl-2-carboxamide]	+++ (indicates binding activity greater than 20% and up to 30%)
C=CC(=O)N1CCN(c2ccc(-c3cc(O)ccc3Cl)c(C#N)c2)CC1 [Compound 11, 4-(4-acryloylpiperazin-1-yl)-2′-chloro-5′-hydroxybiphenyl-2-carbonitrile]	+++ (indicates binding activity greater than 20% and up to 30%)
C=CC(=O)N1CCC(Cn2ccc(-c3cc(O)ccc3Cl)cc2=O)CC1 [Compound 12, 1-((1-acryloylpiperidin-4-yl)methyl)-4-(2-chloro-5-hydroxyphenyl)pyridin-2(1H)-one]	++ (indicates binding activity greater than 10% and up to 20%)
C=CC(=O)N1CCC(Cn2ccc(-c3ccccc3C(F)(F)F)cc2=O)CC1 [Compound 13, 1-((1-acryloylpiperidin-4-yl)methyl)-4-(2-(trifluoromethyl)phenyl) pyridin-2(1H)-one]	+ (indicates binding activity from 5% to 10%)
C=CC(=O)N1CCN(c2ccc(-c3cc(O)ccc3Cl)cc2C(N)=O)CC1 [Compound 14, 4-(4-acryloylpiperazin-1-yl)-2′-chloro-5′-hydroxybiphenyl-3-carboxamide]	+++ (indicates binding activity greater than 20% and up to 30%)
C=CC(=O)N1CCN(Cc2ccc(-c3ccccc3C(F)(F)F)cc2)CC1 [Compound 15, 1-(4-((2′-(trifluoromethyl)biphenyl-4-yl)methyl)piperazin-1-yl)prop-2-en-1-one]	+ (indicates binding activity from 5% to 10%)
C=CC(=O)N1CCN(Cc2ccc(-c3c(C)ccc4[nH]ncc34)cc2)CC1 [Compound 16, 1-(4-(4-(5-methyl-1H-indazol-4-yl)benzyl)piperazin-1-yl)prop-2-en-1-one]	+ (indicates binding activity from 5% to 10%)
C=CC(=O)N1CCN(Cc2ccc(-c3cc(O)ccc3Cl)cc2)CC1 [Compound 17, 1-(4-((2′-chloro-5′-hydroxybiphenyl-4-yl)methyl)piperazin-1-yl)prop-2-en-1-one]	++ (indicates binding activity greater than 10% and up to 20%)
C=CC(=O)N1CCN(Cc2ccc(-c3cc(O)ccc3Cl)c(Cl)c2)CC1 [Compound 18, 1-(4-((2,2′-dichloro-5′-hydroxybiphenyl-4-yl)methyl)piperazin-1-yl)prop-2-en-1-one]	++ (indicates binding activity greater than 10% and up to 20%)
C=CC(=O)N1CCN(Cc2ccc(-c3c(C)ccc4[nH]ncc34)c(Cl)c2)CC1 [Compound 19, 1-(4-(3-chloro-4-(5-methyl-1H-indazol-4-yl)benzyl)piperazin-1-yl)prop-2-en-1-one]	++ (indicates binding activity greater than 10% and up to 20%)
C=CC(=O)N1CCN(Cc2ccc(-c3cc(O)ccc3Cl)cc2O)CC1 [Compound 20, 1-(4-((2′-chloro-3,5′-dihydroxybiphenyl-4-yl)methyl)piperazin-1-yl)prop-2-en-1-one]	+++ (indicates binding activity greater than 20% and up to 30%)
C=CC(=O)N1CCN(Cc2ccc(-c3ccccc3C(F)(F)F)cc2O)CC1 [Compound 21, 1-(4-((3-hydroxy-2′-(trifluoromethyl)biphenyl-4-yl)methyl)piperazin-1-yl)prop-2-en-1-one]	+ (indicates binding activity from 5% to 10%)
C=CC(=O)N1CCN(c2ccc(-c3c(C)ccc4[nH]ncc34)cc2)CC1 [Compound 22, 1-(4-(4-(5-methyl-1H-indazol-4-yl)phenyl)piperazin-1-yl)prop-2-en-1-one]	+ (indicates binding activity from 5% to 10%)
C=CC(=O)N1CCN(c2ccc(-c3ccc(O)cc3Cl)cc2)CC1 [Compound 23, 1-(4-(2′-chloro-4′-hydroxybiphenyl-4-yl)piperazin-1-yl)prop-2-en-1-one]	+ (indicates binding activity from 5% to 10%)
C=CC(=O)N1CCN(c2ccc(-c3cc(O)ccc3Cl)c3cn[nH]c23)CC1 [Compound 24, 1-(4-(4-(2-chloro-5-hydroxyphenyl)-1H-indazol-7-yl)piperazin-1-yl)prop-2-en-1-one]	++++ (indicates binding activity greater than 30%)
C=CC(=O)N1CCN(c2ccc(-c3c(O)cccc3F)cc2)CC1 [Compound 25, 1-(4-(2′-fluoro-6′-hydroxybiphenyl-4-yl)piperazin-1-yl)prop-2-en-1-one]	+ (indicates binding activity from 5% to 10%)
C=CC(=O)N1CCN(c2ccc(-c3c(C)ccc4[nH]ncc34)c3cn[nH]c23)CC1 [Compound 26, 1-(4-(5′-methyl-1H,1′H-4,4′-biindazol-7-yl)piperazin-1-yl)prop-2-en-1-one]	+ (indicates binding activity from 5% to 10%)

From US9862701B2, “Inhibitors of KRAS G12C mutant proteins” (Araxes Pharma LLC, priority 2014, dated 2018)
